{
  "source": "patent US20250257075A1",
  "about": "“MACROCYCLIC INHIBITORS OF KRAS FOR THE TREATMENT OF CANCER” (Hoffmann-La Roche Inc., priority 2022, published 2025)",
  "key": {"[1]": {"tested_on": "SW620 cells (KRAS G12V)", "assay": "Cell viability assay, G12V", "assay_type": "cell-based, human", "conditions": "Homo sapiens, SW-620; SW620, 72 hrs, Cell Counting Kit-8", "in_short": "(§1)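 IC50 derived by 4-parameter sigmoidal fit of CCK-8 signal (OD450−OD650, 2 h development) after 72 h compound exposure in 0.5% DMSO. Seeding density was 5,000 cells/well for NCI-H358 and 2,000 cells/well for AGS and SW620, plated overnight before dosing.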"}, "[2]": {"target": "T1, KRAS G12C-BRAF complex (Homo sapiens, UniProt P01116+P62937, G12C)", "T1 construct": "expressed in transfected cells", "T1 sequence (P01116 1-188 isoform P01116-2 G12C)": "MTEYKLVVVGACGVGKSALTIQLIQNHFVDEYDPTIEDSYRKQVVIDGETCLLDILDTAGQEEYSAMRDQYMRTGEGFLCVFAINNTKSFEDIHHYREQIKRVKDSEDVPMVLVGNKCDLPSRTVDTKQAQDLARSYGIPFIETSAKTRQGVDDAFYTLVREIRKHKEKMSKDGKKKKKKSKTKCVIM", "T1 sequence (P62937 whole entry)": "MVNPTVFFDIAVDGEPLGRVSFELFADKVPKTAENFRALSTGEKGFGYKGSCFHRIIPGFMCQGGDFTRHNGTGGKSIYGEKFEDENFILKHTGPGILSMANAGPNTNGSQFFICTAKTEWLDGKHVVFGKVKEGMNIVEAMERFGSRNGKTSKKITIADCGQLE", "assay": "KRAS G12C-BRAF NanoBit assay in HEK293 cells", "assay_type": "cell-based", "conditions": "HEK293 stable cell pool, 3 hours of incubation", "in_short": "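HEK293 stable pool co-expressing SmBiT-KRAS G12C and BRAF RBD-LgBiT, exposed 3 h to compounds (16-point 3-fold dilution, top final 30 μM). Luminescence was read 20 min after Nano-Glo Live Cell substrate addition. A decrease versus DMSO control indicates disruption of the complex.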"}, "[3]": {"tested_on": "NCI-H358 cells (KRAS G12C)", "assay": "Cell viability assay, G12C", "assay_type": "cell-based, human", "conditions": "Homo sapiens; NCI-H358, 72 hrs, Cell Counting Kit-8", "in_short": "as §1"}, "[4]": {"assay": "GSH Reaction Rates (inherent GSH reactivity)", "assay_type": "in vitro ADME", "conditions": "for T½(hour) in GSH: pH 7.4, up to 6 h", "source_text": "Glutathione (GSH) is a tripeptide found in most of the tissues, especially in high concentrations in the liver, and plays critical roles in protecting cells from oxidative damage and the toxicity of xenobiotic electrophiles, and maintaining redox homeostasis. More specifically, glutathione conjugation helps contribute to detoxification by binding electrophiles that could otherwise bind to proteins or nucleic acids, resulting in cellular damage and genetic mutations.\nMany potentially toxic electrophilic xenobiotics and some endogenous compounds are detoxified by conversion to the corresponding glutathione S-conjugate, which consumes inherent GSH and then diminishes detoxification effects. Some drugs and halogenated workplace/environmental contaminants are bioactivated by this mechanism.\nTherefore Strategy to minimize the GSH metabolism is very critical. Short T1/2 in inherent GSH reaction indicated high GSH reaction rate. Thus T1/2 in inherent GSH reaction assay was determined for the screening of candidates.\nReference compounds and compounds of this invention potentially could form conjugation with GSH either through halogenated moieties substitution reaction or direct Michael addition reaction. This test was therefore performed to check GSH reactivity of listed compounds.\nFor inherent GSH reactivity determination, compounds at 1 μM were incubated at 37° C. with and without 5 mM GSH for 0, 0.5, 1, 2, 4 and 6 h in 100 mM potassium phosphate buffer at pH 7.4. At the end of the designated time points, samples were quenched with acetonitrile containing 10 mM N-ethylmaleimide and an internal standard. Quenched samples were centrifuged, and supernatants were analyzed by LC-MS/MS for compound quantification."}, "[5]": {"tested_on": "human hepatocytes", "assay": "Human hepatocyte stability assay", "assay_type": "in vitro ADME", "conditions": "for Clearance Category: human hepatocytes", "procedure": "The hepatocyte stability assay measures the rate of disappearance of a compound from incubations with cryopreserved suspension hepatocytes from human. Positive controls, including Midazolam, Raloxifene and Dextromethorphan, are included in every experiment. Incubations consist of 1 μM tested compound and suspension of human hepatocytes (1×10^6 cells/mL) in supplemented Williams' E Medium with 10% FBS and 0.5% Penicillin-streptomycin. The hepatocyte suspension was incubated with intermittent shaking 900 rpm at 37° C., in a 5% CO2 incubator. The reaction was stopped by adding methanol containing internal standard (2 μM Tolbutamide) at 2, 10, 20, 40, 60 and 120 minutes after compound addition, depletion of the parent compound was monitored by LC-MS/MS analysis."}, "[6]": {"target": "T1, KRAS G12C-BRAF complex", "assay": "KRAS-BRAF with CYPA (500 nM) interaction assay (TR-FRET), G12C", "assay_type": "biochemical", "conditions": "3 hours", "in_short": "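TR-FRET (Ex320 nm, Em 665/615 nm) measured compound- or compound-CYPA-dependent disruption of KRAS-BRAF complex, with CYPA at 500 nM. Disruption scored as decrease in TR-FRET ratio versus DMSO control wells.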"}, "[7]": {"conditions": "1 μM compound, 5 mM GSH, 37° C., pH 7.4, 6 hr"}, "[8]": {"conditions": "1 μM compound, 5 mM GSH, 37° C."}, "[9]": {"conditions": "1 μM compound, human hepatocytes 1×10^6 cells/mL"}},
  "data": [
    {"smiles": "CO[C@@H](C)c1ncc(N2CCN(C)CC2)cc1-c1c2c3cc(c(F)cc3n1CC(F)(F)F)-c1csc(n1)C[C@H](NC(=O)[C@H](C(C)C)N(C)C(=O)[C@H]1C[C@@H](C#CC(F)(F)F)C1)C(=O)N1CCC[C@H](N1)C(=O)OCC(C)(C)C2", "note": "(atropisomer, axis not shown; (M)) [Example 3, cis-N-[(1S)-1-[[(7S,13S)-24-fluoro-(20M)-20-[2-[(1S)-1-methoxyethyl]-5-(4-methylpiperazin-1-yl)-3-pyridyl]-17,17-dimethyl-8,14-dioxo-21-(2,2,2-trifluoroethyl)-15-oxa-4-thia-9,21,27,28-tetrazapentacyclo[17.5.2.1^2,5.1^9,13.0^22,26]octacosa-1(25),2,5(28),19,22(26),23-hexaen-7-yl]carbamoyl]-2-methyl-propyl]-N-methyl-3-(3,3,3-trifluoroprop-1-ynyl)cyclobutanecarboxamide]", "values": [
      {"measurement": "IC50", "setting": "[1]", "result": 2.18, "unit": "µM"},
      {"measurement": "IC50", "setting": "[2]", "result": 0.036, "unit": "µM"},
      {"measurement": "IC50", "setting": "[3]", "result": 0.003, "unit": "µM"},
      {"measurement": "Remaining at 6 hr in GSH (%)", "setting": "[4]; [7]", "result": 100, "unit": "%"},
      {"measurement": "T½(hour) in GSH", "setting": "[4]; [8]", "result": "stable (If % depletion after 6 hour incubation is less than 20%, compounds were reported as stable)"},
      {"measurement": "CL_hep (Human)", "setting": "[5]; human, 1 μM", "result": 3.6, "unit": "mL/min/kg"},
      {"measurement": "IC50", "setting": "[6]", "result": 0.099, "unit": "µM"}
    ]},
    {"smiles": "CCn1c(-c2cc(N3CCN(CC(F)(F)F)CC3)cnc2[C@H](C)OC)c2c3cc(c(F)cc31)-c1csc(n1)C[C@H](NC(=O)[C@H](C(C)C)N(C)C(=O)[C@H]1C[C@@H](C#CC(F)(F)F)C1)C(=O)N1CCC[C@H](N1)C(=O)OCC(C)(C)C2", "note": "(atropisomer, axis not shown; (M)) [Example 8, cis-N-[(1S)-1-[[(7S,13S)-21-ethyl-24-fluoro-(20M)-20-[2-[(1S)-1-methoxyethyl]-5-[4-(2,2,2-trifluoroethyl)piperazin-1-yl]-3-pyridyl]-17,17-dimethyl-8,14-dioxo-15-oxa-4-thia-9,21,27,28-tetrazapentacyclo[17.5.2.1^2,5.1^9,13.0^22,26]octacosa-1(25),2,5(28),19,22(26),23-hexaen-7-yl]carbamoyl]-2-methyl-propyl]-N-methyl-3-(3,3,3-trifluoroprop-1-ynyl)cyclobutanecarboxamide]", "values": [
      {"measurement": "IC50", "setting": "[1]", "result": "> 5", "unit": "µM"},
      {"measurement": "IC50", "setting": "[2]", "result": 0.054, "unit": "µM"},
      {"measurement": "IC50", "setting": "[3]", "result": 0.019, "unit": "µM"},
      {"measurement": "Remaining at 6 hr in GSH (%)", "setting": "[4]; [7]", "result": 90, "unit": "%"},
      {"measurement": "T½(hour) in GSH", "setting": "[4]; [8]", "result": "stable (If % depletion after 6 hour incubation is less than 20%, compounds were reported as stable)"},
      {"measurement": "CL_hep (Human)", "setting": "[5]; [9]", "result": 2.9, "unit": "mL/min/kg"},
      {"measurement": "Clearance Category", "setting": "[5]", "result": "low (CL_hep (mL/min/kg)<6.96 is low clearance)"},
      {"measurement": "IC50", "setting": "[6]", "result": 0.118, "unit": "µM"}
    ]},
    {"smiles": "CCn1c(-c2cc(N3CCOCC3)cnc2[C@H](C)OC)c2c3cc(c(F)cc31)-c1csc(n1)C[C@H](NC(=O)[C@H](C(C)C)N(C)C(=O)[C@H]1C[C@@H](C#CC(F)(F)F)C1)C(=O)N1CCC[C@H](N1)C(=O)OCC(C)(C)C2", "note": "(atropisomer, axis not shown; (M)) [Example 11, cis-N-[(1S)-1-[[(7S,13S)-21-ethyl-24-fluoro-(20M)-20-[2-[(1S)-1-methoxyethyl]-5-morpholino-3-pyridyl]-17,17-dimethyl-8,14-dioxo-15-oxa-4-thia-9,21,27,28-tetrazapentacyclo[17.5.2.1^2,5.1^9,13.0^22,26]octacosa-1(25),2,5(28),19,22(26),23-hexaen-7-yl]carbamoyl]-2-methyl-propyl]-N-methyl-3-(3,3,3-trifluoroprop-1-ynyl)cyclobutanecarboxamide]", "values": [
      {"measurement": "IC50", "setting": "[1]", "result": 1.37, "unit": "µM"},
      {"measurement": "IC50", "setting": "[2]", "result": 0.012, "unit": "µM"},
      {"measurement": "IC50", "setting": "[3]", "result": 0.002, "unit": "µM"},
      {"measurement": "Remaining at 6 hr in GSH (%)", "setting": "[4]; 6 h, 1 μM, pH 7.4", "result": 94, "unit": "%"},
      {"measurement": "CL_hep (Human)", "setting": "[5]; [9]", "result": 3.3, "unit": "mL/min/kg"},
      {"measurement": "Clearance Category", "setting": "[5]", "result": "low (CL_hep (mL/min/kg)<6.96 is low clearance)"},
      {"measurement": "IC50", "setting": "[6]", "result": 0.065, "unit": "µM"}
    ]},
    {"smiles": "CC#CC(=O)N1CC[C@H](C(=O)N(C)[C@H](C(=O)N[C@H]2Cc3nc(cs3)-c3ccc4c(c3)c(c(-c3cccnc3[C@H](C)OC)n4CC)CC(C)(C)COC(=O)[C@@H]3CCCN(N3)C2=O)C(C)C)C1", "note": "[Example A168, reference compound]", "values": [
      {"measurement": "IC50", "setting": "[1]", "result": 0.121, "unit": "µM"},
      {"measurement": "IC50", "setting": "[2]", "result": 0.205, "unit": "µM"},
      {"measurement": "IC50", "setting": "[3]", "result": 0.011, "unit": "µM"},
      {"measurement": "Remaining at 6 hr in GSH (%)", "setting": "[4]; 6 h, 1 μM, pH 7.4", "result": 77, "unit": "%"},
      {"measurement": "half-life at 1 μM", "setting": "[4]; pH 7.4", "result": 28.9, "unit": "h"},
      {"measurement": "CL_hep (Human)", "setting": "[5]; [9]", "result": 8.8, "unit": "mL/min/kg"},
      {"measurement": "Clearance Category", "setting": "[5]", "result": "medium (16.24<CL_hep (mL/min/kg) >6.96 is medium clearance)"},
      {"measurement": "IC50", "setting": "[6]", "result": 0.173, "unit": "µM"}
    ]}
  ]
}
